In the supplement of paper PMC10307832:

Columns and labels:
Experiment in all cases: relative viability (nuclei count vs DMSO), 5 days (fraction); higher = more cells survive
NCI-H460 = system: NCI-H460
Procedure, shortened: (§1)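 Medians of duplicate plates are given as relative viability. That measure is the nuclei count in treated wells divided by the count in vehicle wells. Counts were taken on 4× images of lung cancer cell lines in 1536-well plates, 5 days after pin-tool dosing the day after seeding with one drug alone or a fixed anchor-drug dose plus five library-drug doses (not always all listed) in √10 steps.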

SK-LU-1 = system: SK-LU-1
Procedure, shortened: as §1

COR-L 105 = system: COR-L 105
Procedure, shortened: as §1

EMC-BAC-2 = system: EMC-BAC-2
Procedure, shortened: as §1

HARA = system: HARA
Procedure, shortened: as §1

NCI-H1437 = system: NCI-H1437
Procedure, shortened: as §1

LCLC-103H = system: LCLC-103H
Procedure, shortened: as §1

HOP-62 = system: HOP-62
Procedure, shortened: as §1

HCC-366 = system: HCC-366
Procedure, shortened: as §1

NCI-H2228 = system: NCI-H2228
Procedure, shortened: as §1

NCI-H1915 = system: NCI-H1915
Procedure, shortened: as §1

NCI-H727 = system: NCI-H727
Procedure, shortened: as §1

HCC-827 = system: HCC-827
Procedure, shortened: as §1

NCI-H1792 = system: NCI-H1792
Procedure, shortened: as §1

A-427 = system: A-427
Procedure, shortened: as §1

CAL-12T = system: CAL-12T
Procedure, shortened: as §1

NCI-H1755 = system: NCI-H1755
Procedure, shortened: as §1

SW 1573 = system: SW 1573
Procedure, shortened: as §1

NCI-H2009 = system: NCI-H2009
Procedure, shortened: as §1

NCI-H23 = system: NCI-H23
Procedure, shortened: as §1

SMILES: CC(=O)O[C@@]12CO[C@@H]1C[C@H](O)[C@@]1(C)C(=O)[C@H](O)C3=C(C)[C@@H](OC(=O)[C@H](O)[C@@H](NC(=O)OC(C)(C)C)c4ccccc4)C[C@@](O)([C@@H](OC(=O)c4ccccc4)[C@H]21)C3(C)C [Docetaxel] + C[C@@H](Oc1cc(-c2cnn(C3CCNCC3)c2)cnc1N)c1c(Cl)ccc(F)c1Cl [Crizotinib] (partner 1 µM)
- relative viability (NCI-H460; first compound 0.0002 µM): 0.73
- relative viability (NCI-H460; first compound 0.000632 µM): 0.673
- relative viability (NCI-H460; first compound 0.002 µM): 0.0086
- relative viability (NCI-H460; first compound 0.006325 µM): 0.0137
- relative viability (NCI-H460; first compound 0.02 µM): 0.0093
- relative viability (SK-LU-1; first compound 0.0002 µM): 0.692
- relative viability (SK-LU-1; first compound 0.000632 µM): 0.567
- relative viability (SK-LU-1; first compound 0.002 µM): 0.379
- relative viability (SK-LU-1; first compound 0.006325 µM): 0.249
- relative viability (SK-LU-1; first compound 0.02 µM): 0.272
- relative viability (COR-L 105; first compound 0.0002 µM): 0.768
- relative viability (COR-L 105; first compound 0.000632 µM): 0.588
- relative viability (COR-L 105; first compound 0.002 µM): 0.361
- relative viability (COR-L 105; first compound 0.006325 µM): 0.285
- relative viability (COR-L 105; first compound 0.02 µM): 0.248
- relative viability (EMC-BAC-2; first compound 0.0002 µM): 0.651
- relative viability (EMC-BAC-2; first compound 0.000632 µM): 0.401
- relative viability (EMC-BAC-2; first compound 0.002 µM): 0.404
- relative viability (EMC-BAC-2; first compound 0.02 µM): 0.161
- relative viability (HARA; first compound 0.0002 µM): 0.903
- relative viability (HARA; first compound 0.000632 µM): 0.364
- relative viability (HARA; first compound 0.002 µM): 0.312
- relative viability (HARA; first compound 0.006325 µM): 0.0907
- relative viability (HARA; first compound 0.02 µM): 0.104
- relative viability (NCI-H1437; first compound 0.0002 µM): 0.901
- relative viability (NCI-H1437; first compound 0.000632 µM): 0.878
- relative viability (NCI-H1437; first compound 0.002 µM): 0.197
- relative viability (NCI-H1437; first compound 0.006325 µM): 0.113
- relative viability (NCI-H1437; first compound 0.02 µM): 0.11
- relative viability (LCLC-103H; first compound 0.0002 µM): 1.19
- relative viability (LCLC-103H; first compound 0.000632 µM): 1.04
- relative viability (LCLC-103H; first compound 0.002 µM): 0.776
- relative viability (LCLC-103H; first compound 0.006325 µM): 0.674
- relative viability (LCLC-103H; first compound 0.02 µM): 0.756
- relative viability (HOP-62; first compound 0.0002 µM): 0.903
- relative viability (HOP-62; first compound 0.000632 µM): 0.386
- relative viability (HOP-62; first compound 0.02 µM): 0.129
- relative viability (HCC-366; first compound 0.0002 µM): 0.426
- relative viability (HCC-366; first compound 0.000632 µM): 0.0953
- relative viability (HCC-366; first compound 0.002 µM): 0.0204
- relative viability (HCC-366; first compound 0.006325 µM): 0.0165
- relative viability (HCC-366; first compound 0.02 µM): 0.0108
- relative viability (NCI-H2228; first compound 0.0002 µM): 0.358
- relative viability (NCI-H2228; first compound 0.000632 µM): 0.292
- relative viability (NCI-H2228; first compound 0.002 µM): 0.22
- relative viability (NCI-H2228; first compound 0.006325 µM): 0.278
- relative viability (NCI-H2228; first compound 0.02 µM): 0.159
- relative viability (NCI-H1915; first compound 0.0002 µM): 0.892
- relative viability (NCI-H1915; first compound 0.000632 µM): 0.803
- relative viability (NCI-H1915; first compound 0.002 µM): 0.325
- relative viability (NCI-H1915; first compound 0.006325 µM): 0.181
- relative viability (NCI-H1915; first compound 0.02 µM): 0.141
- relative viability (NCI-H727; first compound 0.0002 µM): 0.862
- relative viability (NCI-H727; first compound 0.000632 µM): 0.815
- relative viability (NCI-H727; first compound 0.002 µM): 0.344
- relative viability (NCI-H727; first compound 0.006325 µM): 0.298
- relative viability (NCI-H727; first compound 0.02 µM): 0.24
- relative viability (HCC-827; first compound 0.0002 µM): 0.943
- relative viability (HCC-827; first compound 0.000632 µM): 0.91
- relative viability (HCC-827; first compound 0.002 µM): 0.68
- relative viability (HCC-827; first compound 0.006325 µM): 0.416
- relative viability (HCC-827; first compound 0.02 µM): 0.342
- relative viability (NCI-H1792; first compound 0.0002 µM): 0.929
- relative viability (NCI-H1792; first compound 0.000632 µM): 0.905
- relative viability (NCI-H1792; first compound 0.002 µM): 0.646
- relative viability (NCI-H1792; first compound 0.02 µM): 0.115
- relative viability (A-427; first compound 0.0002 µM): 0.998
- relative viability (A-427; first compound 0.000632 µM): 0.859
- relative viability (A-427; first compound 0.002 µM): 0.506
- relative viability (A-427; first compound 0.006325 µM): 0.221
- relative viability (A-427; first compound 0.02 µM): 0.167
- relative viability (CAL-12T; first compound 0.0002 µM): 0.717
- relative viability (CAL-12T; first compound 0.000632 µM): 0.341
- relative viability (CAL-12T; first compound 0.002 µM): 0.146
- relative viability (CAL-12T; first compound 0.02 µM): 0.096
- relative viability (NCI-H1755; first compound 0.0002 µM): 0.833
- relative viability (NCI-H1755; first compound 0.000632 µM): 0.535
- relative viability (NCI-H1755; first compound 0.002 µM): 0.503
- relative viability (NCI-H1755; first compound 0.006325 µM): 0.382
- relative viability (NCI-H1755; first compound 0.02 µM): 0.353
- relative viability (SW 1573; first compound 0.0002 µM): 0.737
- relative viability (SW 1573; first compound 0.000632 µM): 0.307
- relative viability (SW 1573; first compound 0.006325 µM): 0.218
- relative viability (SW 1573; first compound 0.02 µM): 0.203
- relative viability (NCI-H2009; first compound 0.0002 µM): 0.95
- relative viability (NCI-H2009; first compound 0.000632 µM): 1.03
- relative viability (NCI-H2009; first compound 0.002 µM): 0.426
- relative viability (NCI-H2009; first compound 0.006325 µM): 0.252
- relative viability (NCI-H2009; first compound 0.02 µM): 0.174
- relative viability (NCI-H23; first compound 0.0002 µM): 0.534
- relative viability (NCI-H23; first compound 0.000632 µM): 0.412
- relative viability (NCI-H23; first compound 0.002 µM): 0.271
- relative viability (NCI-H23; first compound 0.006325 µM): 0.189
- relative viability (NCI-H23; first compound 0.02 µM): 0.113
